The target in one experiment is NAMPT (Homo sapiens, UniProt P43490). Put plainly: TR-FRET Binding Assay of NAMPT with PRPP. As to conditions: with 200 μM PRPP and 2.5 mM ATP; 2 nM NAMPT, 2 nM probe, 16 hours equilibration. An outline of the steps: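 Compounds were mixed with 2 nM His-tagged NAMPT, 2 nM probe, 1 nM terbium anti-His antibody, 200 μM PRPP and 2.5 mM ATP in assay buffer with 2% DMSO, then left 16 hours to permit possible enzymatic processing of compounds before time-resolved FRET was measured.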
On the technique in general: In TR-FRET formats the signal depends on donor and acceptor labels being close together.

The target in experiment [1] is NAMPT (human, recombinant, C-terminally His-tagged) (Homo sapiens, UniProt P43490). Put plainly: Time-Resolved Fluorescence Resonance Energy Transfer (TR-FRET) Binding Assay of NAMPT. Particulars: without substrates; 6.8 nM NAMPT, 200 nM probe, 3 hours equilibration. In a few lines: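 Compounds, diluted in half-log steps, are mixed with enzyme (6.8 nM), fluorescent probe (200 nM) and Tb-anti-His antibody (1 nM) in pH 7.5 HEPES buffer containing 10 mM MgCl2 and 1 mM DTT. Plates equilibrate 3 h at room temperature; normalized FRET ratios are fitted by four-parameter logistic regression for IC50.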

Another experiment relates to PC3 cells. Put plainly: NAMPT Cell Proliferation Assay. Format: cell-based. Particulars: Homo sapiens, PC-3, 120 h, 5 days incubation, cell viability by Cell Titer Glo. In a few lines: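 IC50 values derive from sigmoidal dose-response fits of percent inhibition of PC3 viability, measured by luminescence after 5 days of compound treatment. Cells (500/well, RPMI containing 10% heat-inactivated FBS) are allowed to attach overnight, and compounds are tested at 10-fold dilutions between 10 μM and 1×10^−5 μM.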

SMILES strings stand for the structures.

Usually IC50 stands for the concentration that inhibits the measured activity by half.

NAMPT (human, recombinant, C-terminally His-tagged), sequence (P43490 whole entry): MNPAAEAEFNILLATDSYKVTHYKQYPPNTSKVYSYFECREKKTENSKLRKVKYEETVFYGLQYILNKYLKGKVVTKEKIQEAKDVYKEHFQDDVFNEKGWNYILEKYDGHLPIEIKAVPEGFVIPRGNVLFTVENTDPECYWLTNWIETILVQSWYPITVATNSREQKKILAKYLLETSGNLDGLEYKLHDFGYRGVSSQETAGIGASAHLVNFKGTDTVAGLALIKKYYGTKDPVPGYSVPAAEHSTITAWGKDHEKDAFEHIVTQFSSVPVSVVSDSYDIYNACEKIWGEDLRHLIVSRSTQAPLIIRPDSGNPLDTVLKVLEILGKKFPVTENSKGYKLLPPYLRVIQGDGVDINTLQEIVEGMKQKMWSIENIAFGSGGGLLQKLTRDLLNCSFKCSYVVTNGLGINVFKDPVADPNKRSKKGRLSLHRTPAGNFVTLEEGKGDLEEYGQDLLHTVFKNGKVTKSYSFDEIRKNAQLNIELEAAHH
NAMPT, sequence (P43490 whole entry): as above

For the molecule `Cc1noc(C)c1CC(=O)N(CC1CCCO1)c1ncc(C(=O)NCc2ccc3nccn3c2)s1` (stereo not drawn) [Example 128, 2-{[(3,5-dimethyl-1,2-oxazol-4-yl)acetyl](tetrahydrofuran-2-ylmethyl)amino}-N-(imidazo[1,2-a]pyridin-6-ylmethyl)-1,3-thiazole-5-carboxamide], the IC50 on NAMPT is 0.873 nM; in experiment [1] it was 30.7 nM; in the experiment on PC3 cells, 2.21 nM.

For `CC(C)OCC1CN(c2ncc(C(=O)NCc3ccn4ccnc4c3)s2)C(=O)O1` (stereo not drawn) [Example 249, N-(imidazo[1,2-a]pyridin-7-ylmethyl)-2-{2-oxo-5-[(propan-2-yloxy)methyl]-1,3-oxazolidin-3-yl}-1,3-thiazole-5-carboxamide], the IC50 stood at 0.72 nM at NAMPT, 817 nM in experiment [1] and 66.5 nM in the experiment with PC3 cells.

For the molecule `CCCn1cc(-c2ccc(C(=O)NCc3ccn4ccnc4c3)s2)cn1` [Example 293, N-(imidazo[1,2-a]pyridin-7-ylmethyl)-5-(1-propyl-1H-pyrazol-4-yl)thiophene-2-carboxamide], the values for the IC50 (on NAMPT; in experiment [1]; in the experiment with PC3 cells) were 0.169 nM, 27.3 nM and 7.74 nM, respectively.

For the molecule `CC(=O)N1CC=C(c2ccc(C(=O)NCc3ccn4ccnc4c3)s2)CC1` [Example 241, 5-(1-acetyl-1,2,3,6-tetrahydropyridin-4-yl)-N-(imidazo[1,2-a]pyridin-7-ylmethyl)thiophene-2-carboxamide], the values for the IC50 (on NAMPT; in experiment [1]; in the experiment on PC3 cells) were 0.169 nM, 67.4 nM and 8.48 nM, respectively.

`O=C(NCc1ccn2ccnc2c1)c1ccc(C2CN(C(=O)c3cccc(Cl)c3)C2)cc1` [Example 646, 4-[1-(3-chlorobenzoyl)azetidin-3-yl]-N-(imidazo[1,2-a]pyridin-7-ylmethyl)benzamide]: the IC50 worked out at 0.51 nM on NAMPT, 195 nM in experiment [1] and 130 nM in the experiment with PC3 cells.

Consider `CC(C)S(=O)(=O)N1CCC(c2ccc(C(=O)NCc3ccn4ccnc4c3)cc2)CC1` [Example 683, N-(imidazo[1,2-a]pyridin-7-ylmethyl)-4-[1-(propan-2-ylsulfonyl)piperidin-4-yl]benzamide], for which the IC50 at NAMPT worked out at 1.19 nM; in experiment [1], 154 nM; in the experiment on PC3 cells it was 36.1 nM.

Turning to `O=C(NCc1ccc2nccn2c1)c1cnc(N2CC(c3ccccc3)OC2=O)s1` (stereo not drawn) [Example 122, N-(imidazo[1,2-a]pyridin-6-ylmethyl)-2-(2-oxo-5-phenyl-1,3-oxazolidin-3-yl)-1,3-thiazole-5-carboxamide], the IC50 at NAMPT worked out at 4.76 nM; in experiment [1], 255 nM; with PC3 cells, 172 nM.

For `CC(C)Cn1cc(-c2ccc(C(=O)NCc3ccc4nccn4c3)cc2)cn1` [Example 119, N-(imidazo[1,2-a]pyridin-6-ylmethyl)-4-[1-(2-methylpropyl)-1H-pyrazol-4-yl]benzamide], the IC50 on NAMPT is 0.783 nM; in experiment [1], 942 nM; with PC3 cells it was 146 nM.

Turning to `O=C(NCc1ccn2ccnc2c1)c1ccc(C2CCN(C(=O)c3cc(F)cc(F)c3)CC2)cc1` [Example 530, 4-[1-(3,5-difluorobenzoyl)piperidin-4-yl]-N-(imidazo[1,2-a]pyridin-7-ylmethyl)benzamide], the results for the IC50 (on NAMPT; in experiment [1]; with PC3 cells) were 0.791 nM, 378 nM and 82.1 nM, respectively.

For the molecule `COc1ccc(C(CO)NC(=O)c2ccc(NC(=O)Nc3ccc4nccn4c3)cc2)cc1` (stereo not drawn) [Example 14, N-[2-hydroxy-1-(4-methoxyphenyl)ethyl]-4-[(imidazo[1,2-a]pyridin-6-ylcarbamoyl)amino]benzamide], the half-maximal inhibitory concentration (IC50) was 1.22 nM on NAMPT, 741 nM in experiment [1] and 644 nM with PC3 cells.

`CC1CC1C(=O)N1CCC(c2ccc(NC(=O)NCc3ccn4ccnc4c3)cc2)CC1` (stereo not drawn) [Example 711, 1-(imidazo[1,2-a]pyridin-7-ylmethyl)-3-(4-{1-[(2-methylcyclopropyl)carbonyl]piperidin-4-yl}phenyl)urea]: the values for the IC50 (on NAMPT; in experiment [1]; with PC3 cells) were 1.11 nM, 88.5 nM and 3.25 nM, respectively.

With `CCC(C)(C)C(=O)N1CC(c2ccc(C(=O)NCc3ccn4ccnc4c3)cc2)C1` [Example 647, 4-[1-(2,2-dimethylbutanoyl)azetidin-3-yl]-N-(imidazo[1,2-a]pyridin-7-ylmethyl)benzamide], the IC50 on NAMPT amounted to 0.672 nM; in experiment [1], 173 nM; in the experiment with PC3 cells it was 6.99 nM.

Turning to `O=C(NCc1ccn2ccnc2c1)c1ccc(C2CN(C(=O)c3cccc(OC(F)(F)F)c3)C2)cc1` [Example 669, N-(imidazo[1,2-a]pyridin-7-ylmethyl)-4-{1-[3-(trifluoromethoxy)benzoyl]azetidin-3-yl}benzamide], the IC50 on NAMPT turned out to be 0.807 nM; in experiment [1], 407 nM; in the experiment with PC3 cells it was 686 nM.

In the case of `O=C(Cc1ccn2ccnc2c1)Nc1ccc(NC(=O)CC2CCCC2)cc1` [Example 739, 2-cyclopentyl-N-{4-[(imidazo[1,2-a]pyridin-7-ylacetyl)amino]phenyl}acetamide], the values for the IC50 (at NAMPT; in experiment [1]; in the experiment on PC3 cells) were 0.672 nM, 37.7 nM and 67.6 nM, respectively.

On to `O=C(NCc1ccc2nccn2c1)c1ccc(C(=O)NC[C@@H]2CCOC2)cc1` [Example 359, N-(imidazo[1,2-a]pyridin-6-ylmethyl)-N′-[(3S)-tetrahydrofuran-3-ylmethyl]benzene-1,4-dicarboxamide], for which the values for the IC50 (at NAMPT; in experiment [1]; in the experiment on PC3 cells) were 2.5 nM, more than 10000 nM and 8770 nM, respectively.

Regarding `O=C(NCc1ccn2ccnc2c1)c1ccc(-c2cnn(CC3CCOC3)c2)o1` (stereo not drawn) [Example 478, N-(imidazo[1,2-a]pyridin-7-ylmethyl)-5-[1-(tetrahydrofuran-3-ylmethyl)-1H-pyrazol-4-yl]furan-2-carboxamide], the IC50 at NAMPT was found to be 0.24 nM; in experiment [1] it was 192 nM; with PC3 cells, 31.2 nM.

Take `CCc1c(-c2ccc(C(=O)NCc3ccn4ccnc4c3)s2)cnn1CC1CCCCC1` [Example 272, 5-[1-(cyclohexylmethyl)-5-ethyl-1H-pyrazol-4-yl]-N-(imidazo[1,2-a]pyridin-7-ylmethyl)thiophene-2-carboxamide]: the results for the IC50 (at NAMPT; in experiment [1]; in the experiment with PC3 cells) were 0.417 nM, 27.2 nM and 15.6 nM, respectively.

On to `O=C(NCc1ccc2nccn2c1)c1ccc(C2=CCN(C(=O)CCC3CCCO3)CC2)cc1` (stereo not drawn) [Example 96, N-(imidazo[1,2-a]pyridin-6-ylmethyl)-4-{1-[3-(tetrahydrofuran-2-yl)propanoyl]-1,2,3,6-tetrahydropyridin-4-yl}benzamide], for which the results for the IC50 (at NAMPT; in experiment [1]; in the experiment on PC3 cells) were 1.56 nM, 192 nM and 9.65 nM, respectively.

Take `CC(C)C(=O)N1CC=C(c2ccc(C(=O)NCc3ccc4nccn4c3)cc2)CC1` [Example 90, N-(imidazo[1,2-a]pyridin-6-ylmethyl)-4-[1-(2-methylpropanoyl)-1,2,3,6-tetrahydropyridin-4-yl]benzamide]: the IC50 came out at 0.63 nM on NAMPT, 204 nM in experiment [1] and 18.7 nM in the experiment with PC3 cells.

Take `CCC(=O)C(=O)N1CCC(c2ccc(C(=O)NCc3ccn4ccnc4c3)cc2)CC1` [Example 518, N-(imidazo[1,2-a]pyridin-7-ylmethyl)-4-[1-(2-oxobutanoyl)piperidin-4-yl]benzamide]: the concentration for half-maximal inhibition (IC50) on NAMPT is 0.169 nM; in experiment [1] it was 234 nM; with PC3 cells, 34.8 nM.

Take `COc1ccc(C(=O)N2CCC(c3ccc(C(=O)NCc4ccn5ccnc5c4)s3)C2)cc1` (stereo not drawn) [Example 784, N-(imidazo[1,2-a]pyridin-7-ylmethyl)-5-[1-(4-methoxybenzoyl)pyrrolidin-3-yl]thiophene-2-carboxamide]: the IC50 at NAMPT was 0.455 nM; in experiment [1], 22.6 nM; in the experiment on PC3 cells, 2.38 nM.

Consider `CC(C)(C)OC(=O)N1CC=C(c2ccc(CC(=O)Nc3ccc4nccn4c3)cc2)CC1` [Example 314, tert-butyl 4-{4-[2-(imidazo[1,2-a]pyridin-6-ylamino)-2-oxoethyl]phenyl}-3,6-dihydropyridine-1(2H)-carboxylate], for which the IC50 at NAMPT was found to be 0.581 nM; in experiment [1] it was 1980 nM; in the experiment on PC3 cells, 395 nM.

Regarding `O=C(NCc1ccn2ccnc2c1)Nc1ccc(C2CCN(C(=O)[C@@H]3CCCO3)C2)cc1` (stereo partly drawn) [Example 387, 1-(imidazo[1,2-a]pyridin-7-ylmethyl)-3-(4-{1-[(2S)-tetrahydrofuran-2-ylcarbonyl]pyrrolidin-3-yl}phenyl)urea], the figures for the IC50 (at NAMPT; in experiment [1]; in the experiment with PC3 cells) were 0.467 nM, 419 nM and 58.1 nM, respectively.

As to `O=C(NCc1ccn2ccnc2c1)c1ccc(C2(O)CCN(C(=O)c3ccccc3)CC2)s1` [Example 556, 5-(1-benzoyl-4-hydroxypiperidin-4-yl)-N-(imidazo[1,2-a]pyridin-7-ylmethyl)thiophene-2-carboxamide], the IC50 came to 0.407 nM on NAMPT, 5.43 nM in experiment [1] and 6.55 nM in the experiment on PC3 cells.

For the molecule `O=C(NCc1ccn2ccnc2c1)c1ccc(O[C@H]2CCN(C(=O)[C@H]3CCCO3)C2)cc1` [Example 340, N-(imidazo[1,2-a]pyridin-7-ylmethyl)-4-({(3S)-1-[(2R)-tetrahydrofuran-2-ylcarbonyl]pyrrolidin-3-yl}oxy)benzamide], the IC50 at NAMPT was 0.817 nM; in experiment [1], more than 10000 nM; with PC3 cells it was more than 10000 nM.
